System: strobilurin resistant strain of Plasmopara viticola
Test: cross-resistance test on small vine plants in the glasshouse

COC(=O)CNC(=O)/C=C\C/C=C\NC(=O)/C=C(C)/C=C/[C@H](C)[C@H](OC)[C@H](C)[C@H](/C=C/c1ccccc1)OC [Compound 8, crocacin A]
cross-resistance to strobilurin resistant Plasmopara viticola: little or no cross-resistance

Reference: article PMC2784635 (Bioorganic & medicinal chemistry, 2008)
